The subject of this data set is monkeys trained to discriminate cocaine (0.40 mg/kg) from saline. The data set is described as follows: Cocaine drug discrimination (substitution protocol) in rhesus monkeys. Type of data set: in vivo, rhesus monkeys (Macaca mulatta). Particulars: for ED50: Primates, in Macaca mulatta, cumulative dosing, read-out: ED50 in producing cocaine-appropriate responding; for Effect on response rates: substituting doses of test compound / training dose of cocaine, relative to saline control. From the text: Subjects: The subjects were four male rhesus monkeys (Macaca mulatta) each weighing 7.0-8.0 kg. Each monkey was maintained on a diet of 7-12 monkey biscuits (Purina Monkey Chow Jumbo #5037) and one piece of fresh fruit per day. During the week, all food was delivered after the experimental session, whereas on weekends, food was delivered between 9 a.m. and noon. Water was freely available at all times. The room in which the monkeys were housed was maintained on a 12-hr light/dark cycle, with lights on from 7 a.m. to 7 p.m.
Apparatus: Each monkey was housed individually in a well-ventilated, stainless steel chamber (56×71×69 cm). The home cages of all monkeys were modified to include an operant panel (28×28 cm) mounted on the front wall. Three square translucent response keys (6.4×6.4 cm) were arranged 2.54 cm apart in a horizontal row 3.2 cm from the top of the operant panel. Each key could be transilluminated by red or green stimulus lights (Superbright LED'S). In addition, the operant panel supported an externally mounted pellet dispenser (Gerbrands, Model G53 10, Arlington, Mass.) that delivered 1 gm fruit-flavored food pellets (Precision Primate Pellets Formula L/I Banana Flavor, P. J. Noyes Co., Lancaster, N.H.) to a food receptacle mounted on the cage beneath the operant response panel. Operation of the operant panels and data collection were accomplished with IBM-compatible computers and interface systems (MedAssociates; St. Albans, Vt.) located in a separate room.
Discrimination Training: Discrimination training was conducted 5 days per week during daily sessions composed of multiple cycles. Each cycle consisted of a 15-min time-out period followed by a 5-min response period. During the time-out, all stimulus lights were off, and responding had no scheduled consequences. During the response period, the right and left response keys were transilluminated red or green, and monkeys could earn up to 10 food pellets by responding under a FR 30 schedule of food presentation. For all four monkeys in this study, the left key was illuminated green, and the right key was illuminated red. The center key was not illuminated at any time, and responding on the center key had no scheduled consequences. If all available food pellets were delivered before the end of the 5-min response period, the stimulus lights transilluminating the response keys were turned off, and responding had no scheduled consequences for the remainder of the 5-min period.
On training days, monkeys were given an i.m. injection of either saline or 0.40 mg/kg cocaine 5-min after the beginning of each time-out period (i.e., 10 min before the response period). Following the administration of saline, responding on only the green key (the saline-appropriate key) produced food, whereas following administration of 0.40 mg/kg cocaine, only responding on the red key (the drug-appropriate key) produced food. Responses on the inappropriate key reset the FR requirement on the appropriate key. Sessions consisted of 1 to 5 cycles, and if the training dose of cocaine was administered, it was administered only during the last cycle. Thus, training days consisted of 0 to 5 saline cycles followed by 0 to 1 drug cycles.
During each response period, 3 dependent variables were determined using the following equations.
1) Percent injection-appropriate responding prior to delivery of the first reinforcer.
2) Percent injection-appropriate responding for the entire response period.
Monkeys were considered to have acquired cocaine discrimination when the following three criteria were met for 7 of 8 consecutive training sessions: 1) the percent injection-appropriate responding prior to delivery of the first reinforcer was greater than or equal to 80% for all cycles; 2) the percent injection-appropriate responding for the entire cycle was greater than or equal to 90% for all cycles; 3) response rates during saline training cycles were greater than 0.5 responses per second. […]

Results on one molecule are retold here after patent US8232315B2, “Methods for treating drug addiction and improving addiction-related behavior” (SK Biopharmaceuticals Co., Ltd., priority 2009, dated 2012).

“Also recorded” adds a separate entry of the source. Where two headings read alike, the source gives them in different places.

Consider `NC(=O)OC[C@H](N)Cc1ccccc1` [test compound, O-carbamoyl-(D)-phenylalaminol], for which the ED50 (monkey 92N012) is 1.8 mg/kg, the ED50 (monkey 153F) worked out at 5.6 mg/kg, the ED50 (monkey 186F) turned out to be 13.4 mg/kg and the ED50 (monkey L958) came to 5.6 mg/kg. For the same molecule, the Overt behavioral effects entry (across the dose range tested (0.1-18 mg/kg)) is “did not produce noticeable overt behavioral effects”. Under “all four monkeys, 0.1-18 mg/kg”, the “Substitution for the cocaine training stimulus” value was “dose-dependent and complete substitution; also recorded: substituted completely”. Also, the “Effect on response rates” value was “increased response rates” (monkey 92N012), “decreased response rates” (monkey 153F) and “had no effect on response rates” (monkey 186F). Further, the “Potency relative to cocaine (fold less potent)” value (rhesus monkeys, cocaine-like behavioral effects) was “approximately 20 fold”.
